Read-outs that look alike come from different tables or passages of the source.
What was measured:
[1] = molecular target: T1, Can2 (Cryptococcus neoformans, UniProt Q3I4V7); assay type: biochemical
T1 construct: recombinant, obtained in-house
T1 sequence (Q3I4V7 1-239): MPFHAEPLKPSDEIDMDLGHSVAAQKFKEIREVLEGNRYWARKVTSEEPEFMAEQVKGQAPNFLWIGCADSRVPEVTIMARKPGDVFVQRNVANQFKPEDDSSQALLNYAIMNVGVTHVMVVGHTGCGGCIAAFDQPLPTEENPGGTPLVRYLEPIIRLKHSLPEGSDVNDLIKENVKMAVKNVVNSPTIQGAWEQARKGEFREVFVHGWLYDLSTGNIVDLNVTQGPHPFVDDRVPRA

[2] = molecular target: T2, BpsCAβ (Burkholderia pseudomallei, UniProt Q63Y17); assay type: biochemical; settings: read-out: KI (μM)^a / BpsCAβ
T2 construct: gene BPSL0372
T2 sequence (Q63Y17 1-256): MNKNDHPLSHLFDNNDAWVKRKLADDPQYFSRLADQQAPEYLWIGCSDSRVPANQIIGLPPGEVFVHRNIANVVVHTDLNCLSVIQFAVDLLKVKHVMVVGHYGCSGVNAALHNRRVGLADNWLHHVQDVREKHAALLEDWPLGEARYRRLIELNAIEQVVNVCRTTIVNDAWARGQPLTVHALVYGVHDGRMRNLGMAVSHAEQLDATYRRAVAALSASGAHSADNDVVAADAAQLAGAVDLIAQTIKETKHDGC

[3] = molecular target: T3, LdcCA (Leishmania infantum, UniProt A4HSV2); settings: read-out: KI (μM)^a / LdcCA; CO2 hydration, TRIS pH 8.3, 20 mM Na2SO4, 1 h preincubation at room temperature
T3 construct: gene LINJ_06_0630
T3 sequence (A4HSV2 1-306): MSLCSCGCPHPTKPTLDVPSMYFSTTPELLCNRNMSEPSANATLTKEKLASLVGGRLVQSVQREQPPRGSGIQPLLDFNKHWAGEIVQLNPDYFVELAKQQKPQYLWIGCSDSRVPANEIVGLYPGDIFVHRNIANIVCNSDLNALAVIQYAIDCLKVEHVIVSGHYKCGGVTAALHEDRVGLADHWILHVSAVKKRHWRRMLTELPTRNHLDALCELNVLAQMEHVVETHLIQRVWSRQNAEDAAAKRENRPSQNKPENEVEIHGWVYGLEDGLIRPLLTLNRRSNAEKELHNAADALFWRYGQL

[4] = molecular target: T4, VChβ (Vibrio cholerae, UniProt Q9KUD6); test: biochemical
T4 construct: gene VC_0586
T4 sequence (Q9KUD6 1-222): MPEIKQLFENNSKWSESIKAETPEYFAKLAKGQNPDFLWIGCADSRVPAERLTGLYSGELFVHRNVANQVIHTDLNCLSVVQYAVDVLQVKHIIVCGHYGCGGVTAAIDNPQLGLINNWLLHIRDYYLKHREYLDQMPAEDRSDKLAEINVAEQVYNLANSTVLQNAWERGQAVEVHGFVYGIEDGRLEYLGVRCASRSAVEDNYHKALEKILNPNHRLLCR

[5] = molecular target: T5, CgNce (Nakaseomyces glabratus, UniProt Q6FTL6); test: biochemical
T5 construct: gene NCE103
T5 sequence (Q6FTL6 entry or part of it): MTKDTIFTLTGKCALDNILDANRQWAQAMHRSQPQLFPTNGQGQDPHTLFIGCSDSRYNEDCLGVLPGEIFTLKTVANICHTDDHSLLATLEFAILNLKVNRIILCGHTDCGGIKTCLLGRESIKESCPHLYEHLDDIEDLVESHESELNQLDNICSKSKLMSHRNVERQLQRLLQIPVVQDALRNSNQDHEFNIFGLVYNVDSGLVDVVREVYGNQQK

[6] = molecular target: T6, FtuβCA (Francisella tularensis, UniProt Q5NH77); assay type: biochemical; settings: read-out: KI (μM)^a / FtuβCA
T6 construct: gene cynT
T6 sequence (Q5NH77 1-228): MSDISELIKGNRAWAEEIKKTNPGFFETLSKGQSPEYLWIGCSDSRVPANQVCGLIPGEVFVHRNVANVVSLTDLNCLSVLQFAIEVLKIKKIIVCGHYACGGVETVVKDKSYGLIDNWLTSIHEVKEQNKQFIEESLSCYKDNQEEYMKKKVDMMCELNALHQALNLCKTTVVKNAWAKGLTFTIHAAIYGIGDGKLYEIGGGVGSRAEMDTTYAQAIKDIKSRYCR

[7] = molecular target: T7, MgCA (Malassezia globosa, UniProt A8Q1N3); test: biochemical
T7 construct: gene MGL_1814
T7 sequence (A8Q1N3 1-241): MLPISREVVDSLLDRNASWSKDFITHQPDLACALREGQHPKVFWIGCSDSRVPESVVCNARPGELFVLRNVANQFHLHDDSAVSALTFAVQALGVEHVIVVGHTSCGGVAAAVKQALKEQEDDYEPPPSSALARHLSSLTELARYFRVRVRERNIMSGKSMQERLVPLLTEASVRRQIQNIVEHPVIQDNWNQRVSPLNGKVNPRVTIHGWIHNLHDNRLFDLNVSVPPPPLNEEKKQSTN

[8] = molecular target: T5, CgNce; settings: read-out: KI (μM)^a / CgNce; CO2 hydration, TRIS pH 8.3, 20 mM Na2SO4, 1 h preincubation at room temperature
[9] = molecular target: T4, VChβ; settings: read-out: KI (μM)^a / VChβ; CO2 hydration, TRIS pH 8.3, 20 mM Na2SO4, 1 h preincubation at room temperature

Structure (SMILES)	Ki ([1]; read-out: KI (μM)^a / Can2) [µM]	Ki [2] [µM]	Ki [3] [µM]	Ki [4] [µM]	Ki [5] [µM]	Ki [6] [µM]	Ki [7] [µM]	Ki ([1]; CO2 hydration, TRIS pH 8.3, 20 mM Na2SO4, 1 h preincubation at room temperature, read-out: KI (μM)^a / Can2) [µM]	Ki [8] [µM]	Ki [9] [µM]	Ki [1] [µM]
COP(N)(=O)c1ccccc1 (centres unmarked) [compound 3, methyl phosphonamidate 3]	0.02	2.1	0.8	0.5	0.2	8.5	–	–	–	–	–
C#CCOP(N)(=O)c1ccccc1 (centres unmarked) [compound 10, propargyl phosphonamidate 10]	5.3	18.9	19.3	20.9	20.2	6.9	97.4	–	–	–	–
CCOP(N)(=O)c1ccccc1 (centres unmarked) [compound 4, ethyl derivative 4]	0.05	4.6	3.5	9.5	0.8	–	–	–	–	–	–
CCCCOP(N)(=O)c1ccccc1 (centres unmarked) [compound 7, alkyl phosphonamidate 7]	2.2	22.5	–	26.8	5.3	42	–	–	–	–	–
NP(N)(=O)c1ccccc1 [compound 2, phenylphosphonic diamide 2]	–	2.5	2.1	–	–	10.3	–	0.03	0.05	0.9	–
CC(C)OP(N)(=O)c1ccccc1 (centres unmarked) [compound 6, isopropyl (6)]	0.1	5.8	5.1	7.3	0.7	18.4	–	–	–	–	–
NP(=O)(OCCCl)c1ccccc1 (centres unmarked) [compound 9, alkyl phosphonamidate 9]	–	32.7	–	34.7	1.8	15.1	–	–	–	–	0.6
CCCOP(N)(=O)c1ccccc1 (centres unmarked) [compound 5, propyl (5)]	0.9	12.6	6.8	15.4	1.3	35.6	79	–	–	–	–
